Measured values: patent US20180244895A1, “ANTIMICROBIAL AND ANTIVIRAL COMPOSITE POLYMER SURFACES” (YEDITEPE UNIVERSITESI, priority 2015, published 2018)
Like-named read-outs stand apart in the source and are kept apart here.

Experiments:
[1] = system: Vancomycin-resistant Enterococcus (VRE); assay: Modified disc diffusion method, boron compounds; type: cell-based; design: key: + sign indicates that the boron compounds had antimicrobial activity.; − sign indicates that there is no antimicrobial activity; conditions: disc immersed in pulverized compound; 36±1° C., 24 hours
[2] = system: Methicillin-resistant Staphylococcus aureus (MRSA); assay: Modified disc diffusion method, boron compounds; type: cell-based; design: key: + sign indicates that the boron compounds had antimicrobial activity.; − sign indicates that there is no antimicrobial activity; conditions: disc immersed in pulverized compound; 36±1° C., 24 hours
Escherichia coli = assay: Modified disc diffusion method, boron compounds; type: cell-based; design: key: + sign indicates that the boron compounds had antimicrobial activity.; − sign indicates that there is no antimicrobial activity; conditions: disc immersed in pulverized compound; 36±1° C., 24 hours
Staphylococcus aureus = assay: Modified disc diffusion method, boron compounds; type: cell-based; design: key: + sign indicates that the boron compounds had antimicrobial activity.; − sign indicates that there is no antimicrobial activity; conditions: disc immersed in pulverized compound; 36±1° C., 24 hours
Pseudomonas aeruginosa = assay: Modified disc diffusion method, boron compounds; type: cell-based; design: key: + sign indicates that the boron compounds had antimicrobial activity.; − sign indicates that there is no antimicrobial activity; conditions: disc immersed in pulverized compound; 36±1° C., 24 hours
Candida albicans = assay: Modified disc diffusion method, boron compounds; type: cell-based; design: key: + sign indicates that the boron compounds had antimicrobial activity.; − sign indicates that there is no antimicrobial activity; conditions: disc immersed in pulverized compound; 36±1° C., 48 hours
Candida glabrata = assay: Modified disc diffusion method, boron compounds; type: cell-based; design: key: + sign indicates that the boron compounds had antimicrobial activity.; − sign indicates that there is no antimicrobial activity; conditions: disc immersed in pulverized compound; 36±1° C., 48 hours
Aspergillus spp. = assay: Modified disc diffusion method, boron compounds; type: cell-based; design: key: + sign indicates that the boron compounds had antimicrobial activity.; − sign indicates that there is no antimicrobial activity; conditions: disc immersed in pulverized compound; 25±1° C., 72 hours
Fusarium oxysporum = assay: Modified disc diffusion method, boron compounds; type: cell-based; design: key: + sign indicates that the boron compounds had antimicrobial activity.; − sign indicates that there is no antimicrobial activity; conditions: disc immersed in pulverized compound; 25±1° C., 72 hours
Botrytis cinerea = assay: Modified disc diffusion method, boron compounds; type: cell-based; design: key: + sign indicates that the boron compounds had antimicrobial activity.; − sign indicates that there is no antimicrobial activity; conditions: disc immersed in pulverized compound; 25±1° C., 72 hours
Penicillium spp. = assay: Modified disc diffusion method, boron compounds; type: cell-based; design: key: + sign indicates that the boron compounds had antimicrobial activity.; − sign indicates that there is no antimicrobial activity; conditions: disc immersed in pulverized compound; 25±1° C., 72 hours
[3] = system: Human adenovirus type 5 Adenoid 75 strain; type: cell-based
[4] = system: poliovirus type 1 Chat strain; type: cell-based
Herpesvirus hominis = conditions: 0.02% chlorhexidine gluconate, 90-minute exposure at room temperature; cited from earlier work
poliovirus = conditions: 0.02% chlorhexidine gluconate, 90-minute exposure at room temperature; cited from earlier work
adenovirus = conditions: 0.02% chlorhexidine gluconate, 90-minute exposure at room temperature; cited from earlier work
[5] = ingestion of 30 mg twice daily for three weeks; cited from earlier work
enteric bacteria = conditions: cited from earlier work
[6] = system: various bacterial strains; conditions: 0.02% chlorhexidine solution, 10-minute exposure; cited from earlier work
[7] = system: humanrhinovirus, coxsackievirus and mengovirus; conditions: binds with ions of metals such as zinc; cited from earlier work
[8] = system: P. aeruginosa NCIMB 10548; conditions: cited from earlier work
E. coli NCIMB 10000 = conditions: cited from earlier work
Pityrosporum ovale = conditions: cited from earlier work
[9] = system: Saccharomyces cerevisiae yeast; conditions: cited from earlier work
[10] = 60 minutes, clean medium, 20° C.

With O.O.O.O.O.[Na+].[Na+].[O-]B1OB2OB([O-])OB(O1)O2 [BP, Borax pentahydrate] the “Antimicrobial activity (inhibition zone)” value [1] was “+”, the “Antimicrobial activity (inhibition zone)” value [2] was “+” and the “Antimicrobial activity (inhibition zone)” value (Escherichia coli) was “+”. The “Antimicrobial activity (inhibition zone)” value (Staphylococcus aureus) was “+”, the “Antimicrobial activity (inhibition zone)” value (Pseudomonas aeruginosa) was “+” and the “Antimicrobial activity (inhibition zone)” value (Candida albicans) was “+”. The “Antimicrobial activity (inhibition zone)” value (Candida glabrata) was “+”, the “Antimicrobial activity (inhibition zone)” value (Aspergillus spp.) was “+” and the “Antimicrobial activity (inhibition zone)” value (Fusarium oxysporum) was “+”. The “Antimicrobial activity (inhibition zone)” value (Botrytis cinerea) was “+” and the “Antimicrobial activity (inhibition zone)” value (Penicillium spp.) was “+”.
For N=C(NCCCCCCNC(=N)NC(=N)Nc1ccc(Cl)cc1)NC(=N)Nc1ccc(Cl)cc1.O=C(O)[C@H](O)[C@@H](O)[C@H](O)[C@H](O)CO.O=C(O)[C@H](O)[C@@H](O)[C@H](O)[C@H](O)CO [Chlorhexidine Gluconate, Chlorhexidine gluconate], the “Reduction ratio in virus titer” value [3] was 4.0 Logarithmic TCID50 ratio, the “Virus titer with disinfectant” value [3] was 1.5 Logarithmic TCID50 and the “reduction in virus titer” value [3] was “at least 4 log”. For the same compound, the “Reduction ratio in virus titer” value ([3]; 1 minute, clean medium, 20° C.) was 4.0 Logarithmic TCID50 ratio, the “Virus titer with disinfectant” value ([3]; 1 minute, clean medium, 20° C.) was 1.5 Logarithmic TCID50 and the “Reduction ratio in virus titer” value [3, 10] was 4.0 Logarithmic TCID50 ratio. The “Virus titer with disinfectant” value [3, 10] was 1.5 Logarithmic TCID50, the active against virus ([3]; used directly without being diluted, 20° C., 1 and 60 minute application periods) was 99.9% and the “Virus titer with disinfectant” value [4] was 2.0 Logarithmic TCID50. The “reduction in virus titer” value [4] was “at least 4 log”, the “reduction of virus titration” value (Herpesvirus hominis) was “more than 99%” and the activity against virus (poliovirus) was “ineffective”. For the same compound, the activity against virus (adenovirus) was “ineffective”.
For O.O.O.O.O=BOB1OB(OB=O)OB2OB([O-])OB([O-])OB(O1)O2.[Na+].[Na+] [DOT, Disodium octaborate tetrahydrate], the “Antimicrobial activity (inhibition zone)” value [1] was “+”, the “Antimicrobial activity (inhibition zone)” value [2] was “+” and the “Antimicrobial activity (inhibition zone)” value (Escherichia coli) was “+”. The “Antimicrobial activity (inhibition zone)” value (Staphylococcus aureus) was “+”, the “Antimicrobial activity (inhibition zone)” value (Pseudomonas aeruginosa) was “+” and the “Antimicrobial activity (inhibition zone)” value (Candida albicans) was “+”. For the same compound, the “Antimicrobial activity (inhibition zone)” value (Candida glabrata) was “+”, the “Antimicrobial activity (inhibition zone)” value (Aspergillus spp.) was “+” and the “Antimicrobial activity (inhibition zone)” value (Fusarium oxysporum) was “+”. The “Antimicrobial activity (inhibition zone)” value (Botrytis cinerea) was “+” and the “Antimicrobial activity (inhibition zone)” value (Penicillium spp.) was “+”.
With O.O.O.O.O.O.O.O.O.O.[Na+].[Na+].[O-]B1OB2OB([O-])OB(O1)O2 [SB, Sodium Borate] the “Antimicrobial activity (inhibition zone)” value [1] was “+”, the “Antimicrobial activity (inhibition zone)” value [2] was “+” and the “Antimicrobial activity (inhibition zone)” value (Escherichia coli) was “+”. For the same compound, the “Antimicrobial activity (inhibition zone)” value (Staphylococcus aureus) was “+”, the “Antimicrobial activity (inhibition zone)” value (Pseudomonas aeruginosa) was “+” and the “Antimicrobial activity (inhibition zone)” value (Candida albicans) was “+”. For the same compound, the “Antimicrobial activity (inhibition zone)” value (Candida glabrata) was “+”, the “Antimicrobial activity (inhibition zone)” value (Aspergillus spp.) was “+” and the “Antimicrobial activity (inhibition zone)” value (Fusarium oxysporum) was “+”. For the same compound, the “Antimicrobial activity (inhibition zone)” value (Botrytis cinerea) was “+” and the “Antimicrobial activity (inhibition zone)” value (Penicillium spp.) was “+”.
For O.O.O.O.[Na+].[O-]B1OO1 [SPT, Sodium perborate tetrahydrate], the “Antimicrobial activity (inhibition zone)” value [1] was “+”, the “Antimicrobial activity (inhibition zone)” value [2] was “+” and the “Antimicrobial activity (inhibition zone)” value (Escherichia coli) was “+”. The “Antimicrobial activity (inhibition zone)” value (Staphylococcus aureus) was “+”, the “Antimicrobial activity (inhibition zone)” value (Pseudomonas aeruginosa) was “+” and the “Antimicrobial activity (inhibition zone)” value (Candida albicans) was “+”. The “Antimicrobial activity (inhibition zone)” value (Candida glabrata) was “+”, the “Antimicrobial activity (inhibition zone)” value (Aspergillus spp.) was “+” and the “Antimicrobial activity (inhibition zone)” value (Fusarium oxysporum) was “+”. The “Antimicrobial activity (inhibition zone)” value (Botrytis cinerea) was “+” and the “Antimicrobial activity (inhibition zone)” value (Penicillium spp.) was “+”.
In the case of O=BOB(O)OB(O)OB=O [borax, borax (Na2B4O7 10 H2O)], the effect on rheumatism [5] is listed as “substantially alleviated rheumatism”.
For OB(O)O [boric acid], the antibacterial activity (enteric bacteria) is given as “has antibacterial activity”.
For [H]/N=C(\N/C(=N/[H])NCCCCCCNC(=N)NC(=N)Nc1ccc(Cl)cc1)Nc1ccc(Cl)cc1 [chlorhexidine], the inhibition of microorganisms [6] is listed as 4 log.
In the case of CC(C)c1cccc(=O)c(O)c1 [hinokitiol], the “inhibition of virus proliferation” value [7] is given as “inhibited proliferation”.
For Zinc borate [ZB], the “Antimicrobial activity (inhibition zone)” value [1] was “+”, the “Antimicrobial activity (inhibition zone)” value [2] was “+” and the “Antimicrobial activity (inhibition zone)” value (Escherichia coli) was “+”. The “Antimicrobial activity (inhibition zone)” value (Staphylococcus aureus) was “+”, the “Antimicrobial activity (inhibition zone)” value (Pseudomonas aeruginosa) was “+” and the “Antimicrobial activity (inhibition zone)” value (Candida albicans) was “+”. For the same compound, the “Antimicrobial activity (inhibition zone)” value (Candida glabrata) was “+”, the “Antimicrobial activity (inhibition zone)” value (Aspergillus spp.) was “+” and the “Antimicrobial activity (inhibition zone)” value (Fusarium oxysporum) was “+”. The “Antimicrobial activity (inhibition zone)” value (Botrytis cinerea) was “+” and the “Antimicrobial activity (inhibition zone)” value (Penicillium spp.) was “+”.
With Zinc pyrithione the “Reduction ratio in virus titer” value [3] was 4.0 Logarithmic TCID50 ratio, the “Virus titer with disinfectant” value [3] was 1.0 Logarithmic TCID50 and the active against virus [3] was 99.9%. The “reduction in virus titer” value [3] was “at least 4 log”, the “Reduction ratio in virus titer” value [4] was 4.5 Logarithmic TCID50 ratio and the “Virus titer with disinfectant” value [4] was 1.5 Logarithmic TCID50. The “reduction in virus titer” value [4] was “at least 4 log”, the MIC value [8] was 13 µg/mL and the MIC value (E. coli NCIMB 10000) was 4.5 µg/mL. For the same compound, the antifungal activity (Pityrosporum ovale) was “has antifungal activity” and the antiyeast activity [9] was “has antiyeast activity”.
